Consider eleven compounds from doi:10.1101/2021.06.14.448287v1, “Plasmodium falciparum protein Pfs16 is a target for transmission-blocking antimalarial drug development” (biorxiv, 2021).

The first assay deals with T1, Pfs16 (Plasmodium falciparum, UniProt Q6ZMA7).
T1 construct: native full-length protein in stage V gametocytes or their Triton X-100 lysate; 157 residues, 16 kDa, two transmembrane domains
T1 sequence (Q6ZMA7 26-157): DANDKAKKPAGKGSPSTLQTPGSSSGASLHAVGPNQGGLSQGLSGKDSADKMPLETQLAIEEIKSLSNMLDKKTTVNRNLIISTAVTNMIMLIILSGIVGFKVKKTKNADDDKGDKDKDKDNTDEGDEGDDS
Briefly: photoaffinity labelling, click capture, pulldown, TMT nLC-MS/MS, in-gel fluorescence and immunoblot. The settings on record: live stage V gametocytes, 2.5-10 uM, 254 nm UV; covalent after irradiation. It is filed as cell-based.
Regarding `C#Cc1ccc2c(c1)C(O)(CNS(=O)(=O)c1cccc(N=[N+]=[N-])c1)CCO2` (stereo not shown) [compound 2, probe 2], the “photoaffinity labelling, click capture, pulldown, TMT nLC-MS/MS, in-gel fluoresc” value was “a dose-dependent pulldown of Pfs16 was clearly observed”.

The target in the next assay is T1, Pfs16. Briefly: CETSA melt curve with immunoblot. Type of assay: biochemical. To be noted: activated stage V gametocyte lysate, 100 uM compound, 1% Triton X-100, pH 7.5; also isothermal dose response at 78.4 °C. For orientation: Immunoblotting shows a protein as a band on a membrane.
Consider `O=S(=O)(NCC1(O)CCOc2ccccc21)c1ccc(Br)s1` (stereo not shown) [DDD01035881], for which the Tm shift result is “DDD01035881 treatment clearly resulted in a positive shift in the Pfs16 melting curve”.

For a further assay, the system named is T2, P. falciparum NF54 stage V male gametocytes.
T2 construct: NF54
Briefly: microbe, parasite or virus in culture. The arrangement: male gamete formation assay (DGFA format), inhibition of exflagellation of stage V gametocytes. To be noted: Plasmodium falciparum, NF54, male gamete formation. An excerpt: Yahiya et al. 2021 Supplement Page 26 of 27 345 IC50 determination by male gamete formation assay 346 The male gamete formation assay (MGFA) was adapted from the previously described dual gamete formation assay (DGFA)3 347 to identify male gamete targeted activity. Briefly, compounds 348 were dispensed into 384-well plates using the HP D300 Digital Dispenser in serial dilutions. Single 349 point controls, a DMSO negative control (0.25% final assay volume) and 20 µM DDD01028076 350 positive control, were included across the plate. Maintaining RT, 10 µl ookinete medium was 351 dispensed into each well, followed by addition of 50 µl of stage V NF54 gametocyte culture (day 14 352 post-induction and onwards). […] Plates were then immediately incubated at 4°C 354 for 4 minutes, followed by 28°C for 5 minutes. Table 1. DDD01035881 and derivatives Activity of DDD01035881 and structural analogues as determined in a structure activity relationship study. IC50s depicted represent the inhibition of male gamete viability as determined by the male gamete formation format of the DGFA. Values are expressed as an average ± SEM of 3-8 biological replicates, ≥ 2 technical replicates.[15]
Take `C#Cc1ccc2c(c1)C(O)(CNS(=O)(=O)c1cccc(N=[N+]=[N-])c1)CCO2` (stereo not shown) [compound 2, probe 2]: the 50% inhibitory concentration (IC50) (in general, the concentration that inhibits the measured activity by half) came to 3980 ± 211 nM.

In turn, `O=S(=O)(NCC1(O)CCOc2ccc(Br)cc21)c1cccc(Br)c1` (stereo not shown) [compound 1, parent molecule 1] registered an IC50 of 785 ± 48 nM.

`O=S(=O)(NCC1(O)CCOc2ccccc21)c1ccc(Br)s1` (stereo not shown) [DDD01035881] returned an IC50 of 292 ± 76 nM.

For `O=S(=O)(NCC1(O)CCOc2ccccc21)c1ccccc1Br` (stereo not shown) [DDD01028076], 367 ± 60 nM corresponded to half-maximal inhibition (IC50).

For the compound `CN(CC1(O)CCOc2ccccc21)S(=O)(=O)c1cccc(Br)c1` (stereo not shown) [compound 10, 10], the 50% inhibitory concentration (IC50) is above 10000 nM.

`C#Cc1cccc(S(=O)(=O)NCC2(O)CCOc3ccccc32)c1` (stereo not shown) [compound 4, 4] returned a half-maximal inhibitory concentration (IC50) above 1000 nM.

For the compound `CCCCn1cc(-c2ccc3c(c2)C(O)(CNS(=O)(=O)c2cccc(Br)c2)CCO3)nn1` (stereo not shown) [compound 9, 9], the IC50 was above 25000 nM.

For the compound `O=S(=O)(NCC1(O)CCOc2ccc(O)cc21)c1cccc(Br)c1` (stereo not shown) [compound 6, 6], the IC50 was above 11000 nM.

The compound `C=CCOc1ccc2c(c1)C(O)(CNS(=O)(=O)c1cccc(Br)c1)CCO2` (stereo not shown) [compound 7, 7] displayed an IC50 above 25000 nM.

In turn, `C#Cc1ccc2c(c1)C(O)(CN(CCC1(C)N=N1)S(=O)(=O)c1cccc(Br)c1)CCO2` (stereo not shown) [compound 5, 5] showed an IC50 above 25000 nM.

As for `C#Cc1ccc2c(c1)C(O)(CNS(=O)(=O)c1cccc(Br)c1)CCO2` (stereo not shown) [compound 3, 3], half-maximal inhibition (IC50) required 370 ± 79 nM.
